{
  "source": "patent US20130123481A1",
  "about": "“MODIFIED NUCLEOSIDES, NUCLEOTIDES, AND NUCLEIC ACIDS, AND USES THEREOF” (MODERNA THERAPEUTICS, priority 2011, published 2013)",
  "system": "human embryonic kidney 293 (HEK293) cells",
  "assay": "Toxicity of Nucleoside Triphosphates (NTPs), CYTO TOX-GLO assay",
  "format": "cell-based",
  "procedure": "The cytotoxicity of natural and modified nucleoside triphosphates (NTPs) alone or in combination with other bases, was analyzed in human embryonic kidney 293 (HEK293) cells in the absence of transfection reagent. […] 10 ul of the NTPs outlined in Table 12 were combined with 10 ul of lipid dilution and incubated for 30 minutes to form a complex before 80 ul of the HEK293 cell suspension was added to the NTP complex. Natural and modified NTPs were transfected at a concentration of 2.1 nM, 21 nM, 210 nM, 2.1 um, 21 uM, 210 um or 2.1 mM. NTPs in combination were transfected at a total concentration of NTPs of 8.4 nM, 84 nM, 840 nM, 8.4 uM, 84 uM, 840 uM and 8.4 mM.",
  "data": [
    {"smiles": "Cn1cc([C@@H]2O[C@H](CO)[C@@H](O)[C@H]2O)c(=O)[nH]c1=O", "note": "[N1-methyl pseudouridine]", "values": [
      {"measurement": "percent of viable cells", "setting": "HEK293, individual NTP 2.1 nM, 4 hr", "result": 91.89, "unit": "%"},
      {"measurement": "percent of viable cells", "setting": "HEK293, individual NTP 2.1 nM, 24 hr", "result": 87.79, "unit": "%"},
      {"measurement": "percent of viable cells", "setting": "HEK293, individual NTP 2.1 nM, 48 hr", "result": 87.81, "unit": "%"},
      {"measurement": "percent of viable cells", "setting": "HEK293, individual NTP 2.1 nM, 72 hr", "result": 92.98, "unit": "%"},
      {"measurement": "percent of viable cells", "setting": "HEK293, individual NTP 21 nM, 4 hr", "result": 91.44, "unit": "%"},
      {"measurement": "percent of viable cells", "setting": "HEK293, individual NTP 21 nM, 24 hr", "result": 86.85, "unit": "%"},
      {"measurement": "percent of viable cells", "setting": "HEK293, individual NTP 21 nM, 48 hr", "result": 86.72, "unit": "%"},
      {"measurement": "percent of viable cells", "setting": "HEK293, individual NTP 21 nM, 72 hr", "result": 92.84, "unit": "%"},
      {"measurement": "percent of viable cells", "setting": "HEK293, individual NTP 210 nM, 4 hr", "result": 92.15, "unit": "%"},
      {"measurement": "percent of viable cells", "setting": "HEK293, individual NTP 210 nM, 24 hr", "result": 85.89, "unit": "%"},
      {"measurement": "percent of viable cells", "setting": "HEK293, individual NTP 210 nM, 48 hr", "result": 87.38, "unit": "%"},
      {"measurement": "percent of viable cells", "setting": "HEK293, individual NTP 210 nM, 72 hr", "result": 92.40, "unit": "%"},
      {"measurement": "percent of viable cells", "setting": "HEK293, individual NTP 2.1 uM, 4 hr", "result": 90.41, "unit": "%"},
      {"measurement": "percent of viable cells", "setting": "HEK293, individual NTP 2.1 uM, 24 hr", "result": 85.72, "unit": "%"},
      {"measurement": "percent of viable cells", "setting": "HEK293, individual NTP 2.1 uM, 48 hr", "result": 85.85, "unit": "%"},
      {"measurement": "percent of viable cells", "setting": "HEK293, individual NTP 2.1 uM, 72 hr", "result": 92.25, "unit": "%"},
      {"measurement": "percent of viable cells", "setting": "HEK293, individual NTP 21 uM, 4 hr", "result": 91.48, "unit": "%"},
      {"measurement": "percent of viable cells", "setting": "HEK293, individual NTP 21 uM, 24 hr", "result": 85.17, "unit": "%"},
      {"measurement": "percent of viable cells", "setting": "HEK293, individual NTP 21 uM, 48 hr", "result": 87.52, "unit": "%"},
      {"measurement": "percent of viable cells", "setting": "HEK293, individual NTP 21 uM, 72 hr", "result": 93.83, "unit": "%"},
      {"measurement": "percent of viable cells", "setting": "HEK293, individual NTP 210 uM, 4 hr", "result": 91.43, "unit": "%"},
      {"measurement": "percent of viable cells", "setting": "HEK293, individual NTP 210 uM, 24 hr", "result": 86.48, "unit": "%"},
      {"measurement": "percent of viable cells", "setting": "HEK293, individual NTP 210 uM, 48 hr", "result": 86.02, "unit": "%"},
      {"measurement": "percent of viable cells", "setting": "HEK293, individual NTP 210 uM, 72 hr", "result": 93.03, "unit": "%"},
      {"measurement": "percent of viable cells", "setting": "HEK293, individual NTP 2.1 mM, 4 hr", "result": 92.45, "unit": "%"},
      {"measurement": "percent of viable cells", "setting": "HEK293, individual NTP 2.1 mM, 24 hr", "result": 88.92, "unit": "%"},
      {"measurement": "percent of viable cells", "setting": "HEK293, individual NTP 2.1 mM, 48 hr", "result": 89.84, "unit": "%"},
      {"measurement": "percent of viable cells", "setting": "HEK293, individual NTP 2.1 mM, 72 hr", "result": 96.80, "unit": "%"}
    ]},
    {"smiles": "Nc1cc[nH]c(=O)n1", "note": "[Cytosine]", "values": [
      {"measurement": "percent of viable cells", "setting": "human, 4 h, 2.1 nM", "result": 93.34, "unit": "%"},
      {"measurement": "percent of viable cells", "setting": "human, 4 h, 21 nM", "result": 93.11, "unit": "%"},
      {"measurement": "percent of viable cells", "setting": "human, 4 h, 210 nM", "result": 88.95, "unit": "%"},
      {"measurement": "percent of viable cells", "setting": "human, 4 h, 2.1 uM", "result": 90.49, "unit": "%"},
      {"measurement": "percent of viable cells", "setting": "human, 4 h, 21 uM", "result": 91.41, "unit": "%"},
      {"measurement": "percent of viable cells", "setting": "human, 4 h, 210 uM", "result": 89.88, "unit": "%"},
      {"measurement": "percent of viable cells", "setting": "human, 4 h, 2.1 mM", "result": 90.51, "unit": "%"},
      {"measurement": "percent of viable cells", "setting": "human, 24 h, 2.1 nM", "result": 85.78, "unit": "%"},
      {"measurement": "percent of viable cells", "setting": "human, 24 h, 21 nM", "result": 86.16, "unit": "%"},
      {"measurement": "percent of viable cells", "setting": "human, 24 h, 210 nM", "result": 86.12, "unit": "%"},
      {"measurement": "percent of viable cells", "setting": "human, 24 h, 2.1 uM", "result": 86.70, "unit": "%"},
      {"measurement": "percent of viable cells", "setting": "human, 24 h, 21 uM", "result": 85.72, "unit": "%"},
      {"measurement": "percent of viable cells", "setting": "human, 24 h, 210 uM", "result": 86.33, "unit": "%"},
      {"measurement": "percent of viable cells", "setting": "human, 24 h, 2.1 mM", "result": 86.92, "unit": "%"},
      {"measurement": "percent of viable cells", "setting": "human, 48 h, 2.1 nM", "result": 88.99, "unit": "%"},
      {"measurement": "percent of viable cells", "setting": "human, 48 h, 21 nM", "result": 88.95, "unit": "%"},
      {"measurement": "percent of viable cells", "setting": "human, 48 h, 210 nM", "result": 85.36, "unit": "%"},
      {"measurement": "percent of viable cells", "setting": "human, 48 h, 2.1 uM", "result": 87.73, "unit": "%"},
      {"measurement": "percent of viable cells", "setting": "human, 48 h, 21 uM", "result": 87.28, "unit": "%"},
      {"measurement": "percent of viable cells", "setting": "human, 48 h, 210 uM", "result": 87.81, "unit": "%"},
      {"measurement": "percent of viable cells", "setting": "human, 48 h, 2.1 mM", "result": 94.23, "unit": "%"},
      {"measurement": "percent of viable cells", "setting": "human, 72 h, 2.1 nM", "result": 94.22, "unit": "%"},
      {"measurement": "percent of viable cells", "setting": "human, 72 h, 21 nM", "result": 91.80, "unit": "%"},
      {"measurement": "percent of viable cells", "setting": "human, 72 h, 210 nM", "result": 88.22, "unit": "%"},
      {"measurement": "percent of viable cells", "setting": "human, 72 h, 2.1 uM", "result": 88.93, "unit": "%"},
      {"measurement": "percent of viable cells", "setting": "human, 72 h, 21 uM", "result": 92.22, "unit": "%"},
      {"measurement": "percent of viable cells", "setting": "human, 72 h, 210 uM", "result": 92.34, "unit": "%"},
      {"measurement": "percent of viable cells", "setting": "human, 72 h, 2.1 mM", "result": 97.15, "unit": "%"}
    ]}
  ]
}
